Laboratory results from patent US20240366577A1, “CONTROLLED LONG-TERM DRUG DELIVERY AND METHODS THEREOF” (THE JOHNS HOPKINS UNIVERSITY, priority 2021, published 2024).

Key:
[1] = system: alpha Smooth Muscle actin (aSMact); assay: immunofluorescent staining of tumors: aSMact; format: in vivo, BALB/c mice; details: single SC injection of 3 mg or 10 mg crystals, compared to daily bolus
Procedure: (§1) To confirm the effects seen at the level of RNA, immunofluorescent staining of excised tumor samples that were in parallel fixed with paraformaldehyde and embedded in paraffin was performed. […] Co-localization of CD31 with aSMact was, as expected, not linked in crystal sorafenib-treated tumors, where CD31 reduction was more extensive than with daily, bolus sorafenib.
(§2) Immunofluorescence imaging was used to determine anti-angiogenic drug efficacy. Tumor tissues were retrieved from mice and fixed overnight using 4% paraformaldehyde at 4° C. After fixation, retrieved tissue samples were moved to 70% ethanol. Samples were then processed for paraffin embedding, sectioning and staining. […] Next, tissues were incubated for 1 hour in an immunostaining cocktail solution consisting of NucBlue (Thermo), specific marker probes (1:200 dilution) anti-CD31 (Cat#DIA-310, HistoBioTec) and anti-alphaSmoothMuscle actin-Cy3 (Sigma) in Dako staining buffer. For CD31, a goat anti-rat alexa-fluor647 secondary antibody was also used (1:400). After staining, samples were rinsed again with 1X PBS three times prior to slides being cover slipped with Pro-long anti-fade Gold (Thermo). […] For stain quantification, images were converted into 8-bit image files, a background threshold was determined using NIH ImageJ, and then all images were processed using an NIH ImageJ macro to quantify the area of positive stain. […]

4T1-luciferase tumors = assay: 4T1-luciferase tumor IVIS bioluminescence, co-injection with crystals; format: in vivo, BALB/c mice; details: 2 mg of 150-200 μm crystals co-injected with 4T1-luciferase cells; up to 20 days; vs PBS controls; p<0.05
Procedure: To determine long-term potential of tunable, slow-releasing crystal-formulated sorafenib, efficacy of a single injection of the injectable drug composition was measured in a syngeneic model of triple negative breast cancer (TNBC): 4T1 tumors grown orthotopically in the mammary fat pad of BALB/c mice. For in vivo testing, mice were anesthetized with inhaled isofluorane and inoculated with 4T1, also referred to as 4T1-Luciferase, Luc, cancer cells, injected into the right inguinal mammary fat pad, as shown in FIG. 3A. […] Tumor presence was quantified over time up to 20 days post injection in both cases based on measured luminescence in equivalent regions of interest (ROIs, white circles), depicted in FIG. 3C. […]
4T1 or 4T1-luc2 cells were trypsinized using 0.25% Trypsin-EDTA, then diluted with the appropriate complete culture media and spun in a centrifuge at 300 g for 5 min. […] Cells were counted with a Countess automated cell counter. […] Tumors were measured externally using a digital caliper, and volume was calculated (!″* (length * height) *−length * height). […]
4T1-Luc2 tumor-injected mice were dosed with RediJect D-Luciferin K+ salt 5 minutes prior to examination. […] Equivalent regions of interest (ROIs) were used for quantification of tumor groups.

[2] = system: macrophage Cd68 and myeloid Cd11b; assay: qPCR of retrieved tumors: immune markers; format: in vivo, BALB/c mice; details: crystal treatment groups
[3] = crystal stability in aqueous solutions (brightfield microscopy); format: physicochemical; details: 1-2 mg crystal, 300 μL saline, RPMI-1640 media, 1X PBS or saline with 0.1% SDS; solutions replaced every hour; after 36 hours
Text: After crystals visibly stopped precipitating or growing, the vessel was submerged in an ultrasonic water bath for 10-30 seconds to dislodge crystals from the vessel sidewall and break them into more a uniform size distributions, either smaller fines, for example 50 μm, or between 150-200 μm, as measured by brightfield and scanning electron microscopy, shown in FIGS. 2A-2B. Resultant product was then removed from the supernatant mother solution, dried, weighed, and stored for later use. On average, yielded crystal was approximately 40% of the starting powder. Furthermore, methods exist to quantify solubilized material, typically using optics to identify changes in light transmittance, and enabled testing of crystal stability in a range of aqueous solutions. To do so, between 1-2 mg of crystal was placed in a 96-well plate with 300 μL of DMSO, saline, RPMI-1640 media, 1X phosphate buffer solution (PBS), or saline with 0.1% sodium dodecyl sulfate (SDS). […] To simulate cumulative drug release over time, all 3 mL supernatant volumes were removed and replaced with completely fresh release media at desired times of 1 hr, 4 hr, 6 hr, 8 hr, 10 hr, 1 day, 2 days, 5 days, 7 days, 10 days and 12 days, and 200 μL aliquots were measured in individual wells of a 96-well plate at 266 nm to determine solubilize sorafenib release, as shown in FIG. 2D.

tumor endothelial CD31 = assay: immunofluorescent staining of tumors: CD31; format: in vivo, BALB/c mice; details: single SC injection of 3 mg or 10 mg crystals, compared to daily bolus
Procedure: as §1, §2

[4] = crystals collected from vitreous fluid after intravitreal injection; format: in vivo, mouse; details: collected 2 weeks after injection; compared to larger crystalline sorafenib

## CNC(=O)c1cc(Oc2ccc(NC(=O)Nc3ccc(Cl)c(C(F)(F)F)c3)cc2)ccn1 [crystalline sorafenib, sorafenib]
[1]
  tumor aSMact levels (immunofluorescence): reduction is less significant
4T1-luciferase tumors
  anti-tumor efficacy (tumor luminescence in ROIs): significant anti-tumor efficacy
[2]
  Cd68 and Cd11b expression levels (qPCR): no significant changes
[3]
  difference in crystal size by brightfield microscopy: no noticeable difference
Tumor endothelial CD31
  tumor endothelial CD31 levels (immunofluorescence): reduction is greater
[4]
  polymorph and crystal form of crystals recovered from vitreous fluid: identical in polymorph and crystal form
